Format in all cases: biochemical
The target in one test is T1, GASC1 (KDM4C, JMJD2C) (Homo sapiens, UniProt Q9H3R0).
T1 construct: 1-349; host or cells: E. coli
T1 sequence (Q9H3R0 1-349): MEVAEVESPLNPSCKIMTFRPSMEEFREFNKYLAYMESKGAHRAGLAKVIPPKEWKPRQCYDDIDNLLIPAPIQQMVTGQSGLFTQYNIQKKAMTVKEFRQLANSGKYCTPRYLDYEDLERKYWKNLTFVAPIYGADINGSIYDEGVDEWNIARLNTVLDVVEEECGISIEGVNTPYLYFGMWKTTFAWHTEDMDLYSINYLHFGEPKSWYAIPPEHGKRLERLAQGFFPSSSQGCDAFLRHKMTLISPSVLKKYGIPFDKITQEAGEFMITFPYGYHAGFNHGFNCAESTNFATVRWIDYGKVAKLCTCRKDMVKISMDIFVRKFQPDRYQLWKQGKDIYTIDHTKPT
As to the kind of experiment: Histone lysine demethylase AlphaLISA assay, GASC1. The conditions noted are these: substrate BK9M3. Summed up:
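Per-enzyme reaction conditions apply; each enzyme sees compound for 10 min ahead of substrate addition. Bead-based AlphaLISA detection at room temperature, protected from light, gives the IC50.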
On the technique in general: Bead proximity is the source of the signal in Alpha formats.

For the next test, the target named is T2, JARID1C (KDM5C) (Homo sapiens, UniProt P41229).
T2 construct: 2-1560; purchased BPS; host or cells: Bac (baculovirus)
The experiment in a line: Histone lysine demethylase AlphaLISA assay, JARID1C. The settings on record: substrate H3K4M3B. The method, then: (§1) Example 2: Histone Lysine Demethylase AlphaLISA Assays for IC50 Value Determination
(§2) Assays are performed analogously to the protocol described by Perkin Elmer (Roy et al. Perkin Elmer Technical Note: AlphaLISA #12, April 2011).
(§3) Enzymes are dissolved in enzyme buffer and incubated for 10 min before 5 μL is added to 5 μL 3% DMSO solutions of compounds in enzyme buffer. Incubated for another 10 minutes, before 5 μL substrate solution is added and the reaction mixture is incubated at room temperature for the given period. 10 μL acceptor beads, suspended at given dilutions in Epigenetic Buffer (Perkin Elmer AL008) from stock, are added and the suspension is incubated 60 minutes in the dark at room temperature, before 10 μL suspension (at the given dilutions in Epigenetic Buffer) of streptavidin donor beads (Perkin Elmer 6760002) in Epigenetic Buffer is added. After incubation at room temperature in the dark the plates are read. Reaction conditions are seen in Table 2b.

Another test addresses T3, JMJD1B (KDM3B) (Homo sapiens, UniProt Q7LBC6).
T3 construct: 842-1761; host or cells: Bac (baculovirus)
T3 sequence (Q7LBC6 842-1761): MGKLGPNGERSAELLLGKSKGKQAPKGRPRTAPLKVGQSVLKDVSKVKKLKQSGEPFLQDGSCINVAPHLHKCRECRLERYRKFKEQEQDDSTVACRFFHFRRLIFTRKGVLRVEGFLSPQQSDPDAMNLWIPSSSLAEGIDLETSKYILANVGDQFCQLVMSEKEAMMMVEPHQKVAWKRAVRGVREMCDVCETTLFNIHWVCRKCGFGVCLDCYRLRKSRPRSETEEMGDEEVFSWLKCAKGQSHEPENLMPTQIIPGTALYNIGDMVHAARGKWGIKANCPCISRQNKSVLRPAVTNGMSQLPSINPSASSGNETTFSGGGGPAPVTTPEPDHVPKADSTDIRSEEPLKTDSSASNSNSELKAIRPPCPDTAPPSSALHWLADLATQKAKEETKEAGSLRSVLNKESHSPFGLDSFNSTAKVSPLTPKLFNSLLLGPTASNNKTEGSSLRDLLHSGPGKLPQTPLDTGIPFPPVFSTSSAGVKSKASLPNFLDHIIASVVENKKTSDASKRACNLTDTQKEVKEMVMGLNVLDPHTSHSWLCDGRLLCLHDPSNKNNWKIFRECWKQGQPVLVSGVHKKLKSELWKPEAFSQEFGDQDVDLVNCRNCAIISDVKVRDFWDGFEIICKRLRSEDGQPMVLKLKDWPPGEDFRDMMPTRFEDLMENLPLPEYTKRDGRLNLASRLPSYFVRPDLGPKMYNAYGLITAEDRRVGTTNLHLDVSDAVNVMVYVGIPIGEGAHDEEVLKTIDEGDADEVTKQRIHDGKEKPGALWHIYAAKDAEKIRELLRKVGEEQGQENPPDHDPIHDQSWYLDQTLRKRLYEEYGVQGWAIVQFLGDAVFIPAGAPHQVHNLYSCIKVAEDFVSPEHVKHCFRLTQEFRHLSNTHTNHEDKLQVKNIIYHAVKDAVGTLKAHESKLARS
As to the kind of experiment: Histone lysine demethylase AlphaLISA assay, JMJD1B. The conditions noted are these: substrate BK9M2. The method, then:
as §1, §2, §3

The target in another test is T4, JMJD2B (KDM4B) (Homo sapiens, UniProt O94953).
T4 construct: 2-500; purchased BPS; host or cells: Bac (baculovirus)
T4 sequence (O94953 2-500): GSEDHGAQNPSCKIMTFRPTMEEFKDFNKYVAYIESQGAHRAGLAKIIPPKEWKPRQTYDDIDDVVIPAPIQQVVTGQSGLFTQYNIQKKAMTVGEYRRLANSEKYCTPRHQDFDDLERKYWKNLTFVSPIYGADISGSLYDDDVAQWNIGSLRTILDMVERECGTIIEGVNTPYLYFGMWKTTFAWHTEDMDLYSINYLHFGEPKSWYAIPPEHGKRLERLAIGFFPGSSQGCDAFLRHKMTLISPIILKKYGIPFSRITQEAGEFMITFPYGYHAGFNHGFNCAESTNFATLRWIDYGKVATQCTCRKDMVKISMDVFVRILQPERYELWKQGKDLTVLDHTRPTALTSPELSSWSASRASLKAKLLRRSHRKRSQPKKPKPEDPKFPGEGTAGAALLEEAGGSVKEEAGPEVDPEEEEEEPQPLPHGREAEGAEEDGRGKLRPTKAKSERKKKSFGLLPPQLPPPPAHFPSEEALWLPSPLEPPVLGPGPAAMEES
The experiment in a line: Histone lysine demethylase AlphaLISA assay, JMJD2B. The settings on record: substrate BK9M3, read-out: JMUD2B IC50. As to the method:
as §1, §2, §3

The next test has as its target T5, PHF8 (KDM7) (Homo sapiens, UniProt Q9UPP1).
T5 construct: KDM7 (PHF8); BRIC; 1-1322; Bac
The experiment in a line: Histone lysine demethylase AlphaLISA assay, PHF8. The settings on record: substrate BK9M2. As to the method: as §1, §2, §3

T5 sequence (Q9UPP1 37-477 limits assumed): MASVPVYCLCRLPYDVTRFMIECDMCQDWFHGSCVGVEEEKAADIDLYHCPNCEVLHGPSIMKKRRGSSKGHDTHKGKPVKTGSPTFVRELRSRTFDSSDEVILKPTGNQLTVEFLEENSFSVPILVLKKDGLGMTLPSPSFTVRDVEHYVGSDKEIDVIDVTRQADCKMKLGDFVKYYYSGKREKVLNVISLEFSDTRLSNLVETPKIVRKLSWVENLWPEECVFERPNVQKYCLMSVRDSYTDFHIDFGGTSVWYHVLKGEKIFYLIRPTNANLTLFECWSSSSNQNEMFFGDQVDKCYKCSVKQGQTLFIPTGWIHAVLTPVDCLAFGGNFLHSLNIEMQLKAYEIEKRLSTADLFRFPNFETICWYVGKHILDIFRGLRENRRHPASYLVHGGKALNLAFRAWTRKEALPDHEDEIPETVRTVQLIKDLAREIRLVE
T2 sequence (P41229 2-1560): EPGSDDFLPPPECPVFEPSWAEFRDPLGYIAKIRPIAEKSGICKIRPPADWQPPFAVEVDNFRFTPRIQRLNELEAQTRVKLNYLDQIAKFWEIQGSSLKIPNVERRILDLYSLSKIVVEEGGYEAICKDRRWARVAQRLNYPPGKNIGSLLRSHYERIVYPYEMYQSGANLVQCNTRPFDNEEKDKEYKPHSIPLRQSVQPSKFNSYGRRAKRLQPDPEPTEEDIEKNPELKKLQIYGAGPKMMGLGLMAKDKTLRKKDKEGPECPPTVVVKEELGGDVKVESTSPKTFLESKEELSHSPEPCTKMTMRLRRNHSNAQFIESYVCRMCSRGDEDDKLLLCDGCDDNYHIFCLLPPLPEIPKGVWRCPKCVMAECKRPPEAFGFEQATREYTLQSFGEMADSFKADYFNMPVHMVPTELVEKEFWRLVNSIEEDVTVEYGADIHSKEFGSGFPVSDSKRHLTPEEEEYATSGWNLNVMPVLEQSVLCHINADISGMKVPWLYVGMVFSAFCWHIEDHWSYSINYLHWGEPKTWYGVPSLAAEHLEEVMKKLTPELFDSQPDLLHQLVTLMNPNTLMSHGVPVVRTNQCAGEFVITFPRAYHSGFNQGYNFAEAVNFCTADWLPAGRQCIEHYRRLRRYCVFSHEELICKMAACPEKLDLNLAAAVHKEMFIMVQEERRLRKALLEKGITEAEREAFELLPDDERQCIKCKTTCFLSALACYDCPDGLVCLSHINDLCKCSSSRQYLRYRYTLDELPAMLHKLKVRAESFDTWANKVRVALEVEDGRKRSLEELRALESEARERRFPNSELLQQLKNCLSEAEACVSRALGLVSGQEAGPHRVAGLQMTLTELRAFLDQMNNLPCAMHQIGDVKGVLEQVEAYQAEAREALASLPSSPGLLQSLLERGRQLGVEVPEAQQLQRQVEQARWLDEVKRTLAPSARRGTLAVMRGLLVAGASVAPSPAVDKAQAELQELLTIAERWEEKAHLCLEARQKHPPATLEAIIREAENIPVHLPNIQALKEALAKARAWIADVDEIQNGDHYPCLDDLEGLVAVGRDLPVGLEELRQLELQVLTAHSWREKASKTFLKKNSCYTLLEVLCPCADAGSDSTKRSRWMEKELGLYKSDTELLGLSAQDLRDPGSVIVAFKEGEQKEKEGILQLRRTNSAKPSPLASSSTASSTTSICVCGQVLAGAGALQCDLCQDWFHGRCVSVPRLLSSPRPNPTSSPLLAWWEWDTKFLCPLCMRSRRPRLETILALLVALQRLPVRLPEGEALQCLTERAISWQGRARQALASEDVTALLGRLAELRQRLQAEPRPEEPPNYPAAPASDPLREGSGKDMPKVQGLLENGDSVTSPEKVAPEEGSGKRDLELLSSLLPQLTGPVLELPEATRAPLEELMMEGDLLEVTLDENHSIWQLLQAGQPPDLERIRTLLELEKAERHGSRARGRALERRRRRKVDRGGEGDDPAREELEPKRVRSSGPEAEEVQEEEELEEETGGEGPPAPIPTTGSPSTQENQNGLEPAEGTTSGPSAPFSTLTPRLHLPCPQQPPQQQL

As to “2-({[(1R)-2-hydroxy-1-{methyl[3-(1-methyl-1H-imidazol-2-yl)propyl]carbamoyl}ethyl]amino}methyl)pyridine-4-carboxylic acid [#37]”, the IC50 (in general, the concentration needed to halve the response being measured) is less than 100 nM at GASC1 (KDM4C, JMJD2C); 100 to 1000 nM against JARID1C (KDM5C); no less than 1000 nM against JMJD1B (KDM3B); less than 100 nM at JMJD2B (KDM4B); no less than 1000 nM on PHF8 (KDM7).

Regarding `CCCCN1CCCC1CCNCc1cc(C(=O)O)ccn1` (centres unmarked) [#34, 2-({[2-(1-butylpyrrolidin-2-yl)ethyl]amino}methyl)pyridine-4-carboxylic acid], the IC50 against GASC1 (KDM4C, JMJD2C) was less than 100 nM; at JARID1C (KDM5C), less than 100 nM; on JMJD1B (KDM3B), no less than 1000 nM; on JMJD2B (KDM4B), less than 100 nM; at PHF8 (KDM7), no less than 1000 nM.

Take `CCCCN(C)C(=O)CNCc1cc(C(=O)O)ccn1` [#14, 2-[({[butyl(methyl)carbamoyl]methyl}amino)methyl]pyridine-4-carboxylic acid]: the IC50 against GASC1 (KDM4C, JMJD2C) was less than 100 nM; against JARID1C (KDM5C), less than 100 nM; at JMJD1B (KDM3B), no less than 1000 nM; on JMJD2B (KDM4B), less than 100 nM; at PHF8 (KDM7) it was 100 to 1000 nM.

Turning to `CCN(CCN(C)C)C(=O)CNCc1cc(C(=O)O)ccn1` [#49, 2-{[({[2-(dimethylamino)ethyl](ethyl)carbamoyl}methyl)amino]methyl}pyridine-4-carboxylic acid], the IC50 was less than 100 nM against GASC1 (KDM4C, JMJD2C); less than 100 nM against JARID1C (KDM5C); no less than 1000 nM on JMJD1B (KDM3B); less than 100 nM on JMJD2B (KDM4B); 100 to 1000 nM against PHF8 (KDM7).

Turning to `COc1ccccc1CN1CCC(NC(=O)CNCc2cc(C(=O)O)ccn2)CC1` [#29, 2-({[({1-[(2-methoxyphenyl)methyl]piperidin-4-yl}carbamoyl)methyl]amino}methyl)pyridine-4-carboxylic acid], the IC50 on GASC1 (KDM4C, JMJD2C) is less than 100 nM; on JARID1C (KDM5C) it was less than 100 nM; at JMJD1B (KDM3B), 100 to 1000 nM; on JMJD2B (KDM4B), less than 100 nM; on PHF8 (KDM7) it was less than 100 nM.

Turning to `O=C(O)c1ccnc(CNCC(=O)N2CCCC2)c1` [#13, 2-({[2-oxo-2-(pyrrolidin-1-yl)ethyl]amino}methyl)pyridine-4-carboxylic acid], the IC50 at GASC1 (KDM4C, JMJD2C) was less than 100 nM; against JARID1C (KDM5C), less than 100 nM; on JMJD1B (KDM3B), no less than 1000 nM; at JMJD2B (KDM4B), less than 100 nM; on PHF8 (KDM7), 100 to 1000 nM.

As to `CC(C)=CCCC(C)CCN1CCC(NC(=O)CNCc2cc(C(=O)O)ccn2)C1` (centres unmarked) [#35, 2-{[({[1-(3,7-dimethyloct-6-en-1-yl)pyrrolidin-3-yl]carbamoyl}methyl)amino]methyl}pyridine-4-carboxylic acid], the IC50 is less than 100 nM against GASC1 (KDM4C, JMJD2C); less than 100 nM on JARID1C (KDM5C); no less than 1000 nM at JMJD1B (KDM3B); less than 100 nM on JMJD2B (KDM4B); 100 to 1000 nM against PHF8 (KDM7).
